Common to all, as to type: cell-based, human
Series [1] concerns p38 MAPK. As to the kind of experiment: p38 MAPK activation (FACE ELISA), A2780. To be noted: 24 h, 10, 50, 100 μM tested. The method, then: (§1) Activation of p38 MAPK was examined using the Fast Activated Cell-Based ELISA (FACE) p38 kit (Active Motif) according to the manufacturer's instructions. In brief, cells were fixed with 4% formaldehyde and incubated with a primary antibody that recognizes either phosphorylated p38 or total p38 overnight at 4°C. Then the cells were washed and incubated with a secondary HRP-conjugated antibody for 1 h at room temperature. The color reaction that developed was read using a spectrofluorometer at 450 nm wavelength.
(§2) The results were expressed as a ratio of phosphorylated to total p38 activity.
On the technique in general: An ELISA detects its analyte on a solid surface through an enzyme-linked reagent.

Series [2] concerns SKOV-3 cells. As to the kind of experiment: ROS production (H2DCFDA), SKOV-3. To be noted: 24 h, 10, 50, 100 μM tested. The method, then:
ROS production was assessed in cells probed with a fluorescent dye, 2′,7′-dichlorodihydrofluorescein diacetate (H2DCFDA; 5 μM) (Molecular Probes, Eugene, USA) for 45 min at 37°C. Fluorescence intensity in cell lysates was monitored in a Victor2 spectrofluorometer with excitation at 485 nm and emission at 535 nm.

The next series deals with HOSE cells. As to the kind of experiment: LDH release assay, HOSE cells. To be noted: Homo sapiens, 24 h, CalcuSyn.
The subject of series [3] is superoxide dismutase (SOD). As to the kind of experiment: SOD activity in cell lysates, HPMCs. To be noted: 24 h, percentage of control cells. The method, then:
(§3) Total activity of superoxide dismutase (SOD) was measured in cell lysates with a commercially available kit (R&D Systems Europe, Abingdon, UK), while the activity of catalase (CAT) was estimated by using the OxiSelect Catalase Activity Assay Kit (Cell Biolabs Inc., San Diego, CA, USA). Both assays were performed according to the manufacturer's instructions.

The subject of series [4] is p38 MAPK. As to the kind of experiment: p38 MAPK activation (FACE ELISA), HOSE cells. To be noted: 24 h, percentage of control cells. The method, then:
as §1, §2

Another series has as its system caspase-8. As to the kind of experiment: Caspase-8 activity in ovarian cancer cell lysates. To be noted: ovarian cancer cells (A2780, OVCAR-3, SKOV-3); 24 h. The method, then:
Identification of apoptosis was based on the presence of DNA condensation in cells stained with a fluorescent dye, Hoechst 33258 (Molecular Probes, Eugene, OR). Cells were grown on Lab-Tek Chamber Slides (Nunc, Roskilde, Denmark), fixed with 4% formaldehyde for 10 min and washed twice with PBS. Then the cells were incubated with Hoechst 33258 (0.1 μg/mL) for 5 min in the dark. After washing with PBS, stained nuclei were observed and counted under a Zeiss Axio Observer D1 fluorescence microscope (Carl Zeiss, Jena, Germany). The activity of caspases 3, 8, and 9 was quantified in the cell lysates using specific colorimetric kits (Abcam, Cambridge, UK) according to the manufacturer's instructions.

Series [5] relates to SKOV-3 cells. Put plainly: Oxidative DNA damage (8-OH-dG immunoassay), SKOV-3. To be noted: 24 h, 10, 50, 100 μM tested. The method, then:
Oxidative DNA damage was assessed by measuring the 8-OH-dG concentration with a competitive immunoassay (Cell Biolabs Inc.), as per manufacturer's instructions. The efficiency of 8-OH-dG repair was estimated after cell recovery for 24 h in standard growth medium. In order to examine the activity of DNA glycosylase I, reverse transcription PCR was performed. RNA extraction was carried out using the RNA Bee (Tel-Test, Friendswood, Texas, USA) and purified according to the manufacturer's protocol. One microgram of RNA was reverse transcribed into cDNA with random hexamer primers, and cDNA was subjected to PCR. The profile of the replication cycles was denaturation at 94°C for 50 s, annealing at 58°C for 50 s, and polymerization at 72°C for 1 min. In each reaction, the expression of glyceraldehyde-3-phosphate dehydrogenase (GAPDH) served as the internal control. The primers used for PCR were as follows: hOGG1 forward, 5′-[…]-3′; hOGG1 reverse, 5′-TAGCCCGCCCTGTTCTTC-3′ designed to amplify a 551-bp region; GAPDH forward, 5′-CCATGGAGAAGGCTGGGG-3′; and GAPDH reverse 5′-[…]-3′ designed to amplify a 194-bp region (total number of cycles: 28). The PCR products were separated on 3% agarose gels stained with ethidium bromide and then visualized.

Another series concerns OVCAR-3 cells. As to the kind of experiment: SA-β-Gal activity (senescence), OVCAR-3. To be noted: 24 h, 10, 50, 100 μM tested. The method, then:
The activity of SA-β-Gal in the cell extracts was quantified by measuring the rate of conversion of 4-methylumbelliferyl-β-D-galactopyranoside to 4-methylumbelliferone, as described in [19]. In order to visualize expression of the enzyme in the cancer cell cytoplasm, cytochemical staining for SA-β-Gal was performed according to Dimri et al..

For series [6], the system named is HPMCs. Put plainly: MTT viability assay, HPMCs. To be noted: 24 h; for pIC50: Homo sapiens, CalcuSyn; for concentration up to which viability was maintained: cytotoxicity tests (MTT and LDH release). The method, then:
Cell viability was assessed with the MTT test and with lactate dehydrogenase (LDH) release assay. As per the MTT method, normal and cancer cells were seeded into 96-well plates at high density and allowed to attach overnight. Then they were incubated in a medium containing 1.25 mg/mL of the MTT salt [3-(4,5-dimethylthiazol-2-yl)-2,5-diphenyltetrazolium bromide] for 24 h at 37°C. The generated formazan was solubilized with 20% sodium dodecyl sulphate and 50% N,N-dimethylformamide. Absorbance of the converted dye was recorded at 595 nm with a reference wavelength of 690 nm.
In order to examine the effect of 3,3′,4,4′-THS on the viability of ovarian cancer cells and to compare its activity with RVT, subconfluent cultures of A2780, OVCAR-3, and SKOV-3 cells were subjected to a wide range of stilbene concentrations (0–500 μM) for 24 h; then MTT and LDH release assays were performed.

The subject of series [7] is superoxide dismutase (SOD). As to the kind of experiment: SOD activity in cell lysates, A2780. To be noted: 24 h, 10, 50, 100 μM tested. The method, then:
as §3

Series [8] concerns HPMCs. Put plainly: Cell proliferation (CFDA SE), HPMCs. To be noted: 24 h, percentage of control cells. The method, then: Cell proliferative potential was determined using Cell Proliferation Kit I (PromoKine, Heidelberg, Germany) according to the manufacturer's instructions. In brief, cells were probed for 15 min with 5-(and 6)-carboxyfluorescein diacetate, a succinimidyl ester (CFDA SE; 2 μM) which diffuses into cells, covalently binds to proteins, and becomes fluorescent upon its hydrolysis by intracellular esterases. The fluorescence emitted by the cells (the dye is inherited by the daughter cells through successive divisions) was recorded using a Victor2 spectrofluorometer (Perkin-Elmer, Turku, Finland) with excitation at 435 nm and emission at 535 nm.

pIC50: −log10 of the molar value.

Data on two molecules can be found in article PMC4502315, “High Potency of a Novel Resveratrol Derivative, 3,3′,4,4′-Tetrahydroxy-trans-stilbene, against Ovarian Cancer Is Associated with an Oxidative Stress-Mediated Imbalance between DNA Damage Accumulation and Repair” (Oxidative Medicine and Cellular Longevity, 2015).

With `Oc1ccc(/C=C/c2ccc(O)c(O)c2)cc1O` [3,3′,4,4′-THS, 3,3′,4,4′-tetrahydroxy-trans-stilbene], in the series on p38 MAPK [1], the “p38 MAPK activity (phosphorylated/total), effect in words” value was “elicited its stimulatory activity at 50 and 100 μM”. In addition, in the series on SKOV-3 cells [2], the “generation of ROS, effect in words” value is “remarkably stronger”. Also, the pIC50 – broadly, −log10 of the IC50, conventionally taken in molar units – is 3.27 with HOSE cells and 3.30 in the series on HPMCs [6]. For the same molecule, the SOD in series [3] (10 μM) is reported as 122 ± 4^∗# %; in series [3] (50 μM), 141 ± 3^∗# %; in series [3] (100 μM) it was 136 ± 4^∗# %. The “p38 MAPK” value in the series on p38 MAPK [4] (10 μM) is reported as 106 ± 5%; in the series with p38 MAPK [4] (50 μM), 104 ± 4%; with p38 MAPK [4] (100 μM) it was 100 ± 3%. Moreover, in the series with caspase-8, the “caspase-8 activation, effect in words” value is listed as “lack of activation of caspase-8”. Besides, the “concentration of 8-OH-dG (oxidative DNA damage), effect in words” value with SKOV-3 cells [5] was “increasing the concentration of 8-OH-dG in the OVCAR-3 and SKOV-3 cells starting from a dose of 10 μM”. The “SA-β-Gal activity (senescence), effect in words” value with OVCAR-3 cells is given as “significantly greater than those of RVT at each concentration”. Moreover, the “concentration up to which viability was maintained” value in the series on HPMCs [6] is given as “up to 300 μM”. Also, the “SOD activity, effect in words” value in series [7] is “increased SOD at 10 μM and decreased the activity of the enzyme at 50 and 100 μM”. The Proliferation is 141 ± 3^∗# % in the series on HPMCs [8] (10 μM), 103 ± 1% in the series with HPMCs [8] (50 μM) and 102 ± 2% with HPMCs [8] (100 μM).
Consider `Oc1ccc(/C=C/c2cc(O)cc(O)c2)cc1` [RVT, 3,4′,5-trihydroxy-trans-stilbene, reference compound], for which the “p38 MAPK activity (phosphorylated/total), effect in words” value in the series on p38 MAPK [1] is “increased the activity of p38 MAPK at 100 μM”. Moreover, the “generation of ROS, effect in words” value with SKOV-3 cells [2] is on record as “stimulated the release of ROS”. Further, the pIC50 was 3.38 with HOSE cells and 3.33 in the series on HPMCs [6]. Further, the SOD was 110 ± 2^∗ % in series [3] (10 μM), 112 ± 3^∗ % in [3] (50 μM) and 113 ± 2^∗ % in [3] (100 μM). The results for the “p38 MAPK” value with p38 MAPK [4] (10 μM), in the series with p38 MAPK [4] (50 μM) and with p38 MAPK [4] (100 μM) were 103 ± 5%, 107 ± 10% and 108 ± 11%, respectively. For the same molecule, the “caspase-8 activation, effect in words” value with caspase-8 is reported as “no effect”. Moreover, the “concentration of 8-OH-dG (oxidative DNA damage), effect in words” value in the series on SKOV-3 cells [5] was “induced DNA injury in A2780 and SKOV-3 at 50 and 100 μM”. Besides, the “SA-β-Gal activity (senescence), effect in words” value with OVCAR-3 cells is “cellular senescence was elicited”. Besides, in the series with HPMCs [6], the “concentration up to which viability was maintained” value is “up to 300 μM”. Besides, in series [7], the “SOD activity, effect in words” value is given as “upregulated activity of the enzyme”. Also, the Proliferation with HPMCs [8] (10 μM) was 99 ± 3%; in the series with HPMCs [8] (50 μM) it was 103 ± 4%; with HPMCs [8] (100 μM), 102 ± 2%.
